Test results published in patent publication US20050209278A1, “Piperidinyl- and piperazinyl-sulfonylmethyl hydroxamic acids and their use as protease inhibitors” (priority 2002, published 2005).
Structures can show the parent of a compound that is named as a salt.

The compounds below were run against T1, MMP-14 (Homo sapiens, UniProt P50281) (assay: In vitro MMP inhibition, Ki determination (fluorogenic substrate II)). Settings: human recombinant enzyme (catalytic domain); 4 μM substrate II; room temperature, 1 hr; read-out: MMP-14 Ki.
T1 construct: The catalytic domain enzyme was expressed in E. coli inclusion bodies, solubilized in urea; made in house
Assay type: biochemical
Procedure: Several hydroxamic acids and salts thereof were analyzed in in vitro assays to determine their ability to inhibit the MMP cleavage of peptide substrates. […] and IC50 constants were calculated from the assayed hydroxamic acid-MMP interactions.
Human recombinant MMP-1, MMP-2, MMP-9, MMP-13, and MMP-14 were used in this assay. All enzymes were prepared in Assignee's laboratories following usual laboratory procedures. Protocols for the preparation and use of these enzymes are available in the scientific literature. See, e.g., Enzyme Nomenclature (Academic Press, San Diego, Calif., 1992) (and the citations therein). See also, Freije et al., “Molecular cloning and expression of collagenase-3, a novel human matrix metalloproteinase produced by breast carcinomas,” J Biol. Chem., 269(24), 16766-16773 (1994).
The MMP-14 full length cDNA was provided by Dr. Gregory Goldberg of Washington University (St. Louis, Mo.). The catalytic domain enzyme was expressed in E. coli inclusion bodies, solubilized in urea, purified on a preparative […] reverse phase HPLC column, and then refolded in the presence of zinc acetate and purified for use.
All MMPs were activated using 4-aminophenylmercuric acetate (“APMA”, Sigma Chemical, St. Louis, Mo.) or trypsin. MMP-9 also was activated using human recombinant MMP-3 (purified in Assignee's laboratory following standard cloning and purification techniques).
Two fluorogenic, methoxycoumarin-containing polypeptide substrates were used in the MMP inhibition assays: [drawing 427] Here, “Dpa” is 3-(2,4-dinitrophenyl)-L-2,3-diaminopropionyl group, and “MCA” is 7-methoxycoumarin-4-yl acetyl. Substrate (I) was purchased from Baychem (Redwood City, Calif.), and substrate II was prepared Assignee's laboratory. Substrate I was used in the IC50 determination assays, while substrate II was used in the Ki determination assays. In the absence of MMP inhibitory activity, either substrate is cleaved at the Gly-Leu peptide bond. This cleavage separates the highly fluorogenic peptide from the 2,4-dinitrophenyl quencher, thus resulting in increase of fluorescent intensity.
The stock solutions of the assayed hydroxamic acids (or salts thereof) were prepared in 1% dimethyl sulfoxide (DMSO). These stock solutions were diluted in Buffer A (100 mM Tris-HCl, 100 mM NaCl, 10 mM CaCl2, 0.05% polyoxyethylene 23 lauryl ether, pH 7.5) to obtain solutions with different hydroxamic acid concentrations, i.e., assay solutions with different concentrations of the assayed MMP inhibitory compound. The experiment controls contained the same amount of Buffer A/DMSO as the assayed sample, but contained no hydroxamic acid (or salt thereof).
The assays from which the Ki determinations were made were performed as follows. The assayed hydroxamic acid samples were incubated in separate wells of untreated white polystyrene plates (Nunc Nalgene International, Rochester, N.Y.), and analyzed on a Tecan SpectraFlour Plus plate reader. The excitation wavelength was 330 nm, and the emission wavelength—420 nm. All samples (assayed hydroxamic acids and controls) were incubated in separate plate wells at room temperature for 1 hr in the presence of 4 μM of MMP substrate (II). In the absence of MMP inhibitory activity, substrate II was cleaved at the Gly-Leu bond resulting in an increase of relative fluorescence. Inhibition was observed as a reduced rate of this increase in relative fluorescence. The various hydroxamic acids were analyzed using a single low enzyme concentration with a single substrate concentration fixed at or below the Km. This protocol is a modification of method by Knight et al., FEBS Lett., 296(3), 263-266 (1992). Apparent inhibitory constants were determined by non-linear regression of reaction velocity as a function of inhibitor and enzyme concentration using Morrison's equation, as described by Kuzmic, Anal. Biochem. 286, 45-50 (2000).

Going from `CCCCc1cnc(N2CCN(S(=O)(=O)C3(C(=O)NO)CCOCC3)CC2)cn1` [Example 1, 4-{[4-(5-butylpyrazin-2-yl)piperazin-1-yl]sulfonyl}-N-hydroxytetrahydro-2H-pyran-4-carboxamide Dihydrochloride] to `CCCCCc1ccc(N2CCN(S(=O)(=O)C3(C(=O)NO)CCOCC3)CC2)c(F)c1` [Example 23, 4-{[4-(2-fluoro-4-pentylphenyl)piperazin-1-yl]sulfonyl}-N-hydroxytetrahydro-2H-pyran-4-carboxamide Hydrochloride], the Ki rises from 4.29 µM to > 10 µM. The first binds more tightly here.

Compared with `O=C(NO)C1(S(=O)(=O)N2CCN(c3ccc(OCC(F)(F)F)cc3)CC2)CCOCC1` [Example 2, N-hydroxy-4-({4-[4-(2,2,2-trifluoroethoxy)phenyl]piperazin-1-yl}sulfonyl)tetrahydro-2H-pyran-4-carboxamide Hydrochloride], `O=C(NO)C1(S(=O)(=O)N2CCN(c3ccc(OCCCC(F)(F)F)cc3)CC2)CCOCC1` [Example 7, N-hydroxy-4-({4-[4-(4,4,4-trifluorobutoxy)phenyl]piperazin-1-yl}sulfonyl)tetrahydro-2H-pyran-4-carboxamide Hydrochloride] is 2.2-fold higher in Ki: 1.94 µM for the first, 4.33 µM for the second.

First: CCOc1ccc(N2CCN(S(=O)(=O)C3(C(=O)NO)CCOCC3)CC2)cc1 [Example 3, 4-{[4-(4-ethoxyphenyl)piperazinyl]sulfonyl}perhydro-2H-pyran-4-carbohydroxamic Acid]
Second: COCCOc1ccc(N2CCN(S(=O)(=O)C3(C(=O)NO)CCOCC3)CC2)cc1 [Example 14, N-hydroxy-4-({4-[4-(2-methoxyethoxy)phenyl]piperazin-1-yl}sulfonyl)tetrahydro-2H-pyran-4-carboxamide Hydrochloride]
The Ki of the first is 7.3-fold lower: 1.26 µM for the first, 9.17 µM for the second. The first binds more tightly here.

Going from `O=C(NO)C1(S(=O)(=O)N2CCN(c3ccc(OC(F)(F)C(F)F)cc3)CC2)CCOCC1` [Example 4, 4-({4-[4-(1,1,2,2-tetrafluoroethoxy)phenyl]piperazinyl}sulfonyl)perhydro-2H-pyran-4-carbohydroxamic Acid] to `O=C(NO)C1(S(=O)(=O)N2CCN(c3ccc(CCC(F)(F)C(F)(F)F)cc3)CC2)CCOCC1` [Example 17, N-hydroxy-4-({4-[4-(3,3,4,4,4-pentafluorobutyl)phenyl]piperazin-1-yl}sulfonyl)tetrahydro-2H-pyran-4-carboxamide Hydrochloride], the Ki rises from 0.954 µM to 7.97 µM (8.4-fold). The first binds more tightly here.

`CCCCc1ccc(N2CCN(S(=O)(=O)C3(C(=O)NO)CCN(CCOC)CC3)CC2)cc1` [Example 5, 4-{[4-(4-butylphenyl)piperazin-1-yl]sulfonyl}-N-hydroxy-1-(2-methoxyethyl)piperidine-4-carboxamide Dihydrochloride] and `CCCCCc1ccc(N2CCN(S(=O)(=O)C3(C(=O)NO)CCN(CCOC)CC3)CC2)cc1` [Example 6, N-Hydroxy-1-(2-methoxyethyl)-4-{[4-(4-pentylphenyl)piperazin-1-yl]sulfonyl}piperidine-4-carboxamide Dihydrochloride] are within 1.5-fold of each other in Ki: 1.55 µM for the first, 2.3 µM for the second.

Compared with `COc1ccc(-c2cnc(N3CCN(S(=O)(=O)C4(C(=O)NO)CCOCC4)CC3)nc2)cc1` [Example 8, N-hydroxy-4-({4-[5-(4-methoxyphenyl)pyrimidin-2-yl]piperazin-1-yl}sulfonyl)tetrahydro-2H-pyran-4-carboxamide Hydrochloride], `O=C(NO)C1(S(=O)(=O)N2CCN(c3ccc(-c4ccccc4)c(F)c3)CC2)CCOCC1` [Example 12, 4-{[4-(2-fluoro-1,1′-biphenyl-4-yl)piperazin-1-yl]sulfonyl}-N-hydroxytetrahydro-2H-pyran-4-carboxamide Hydrochloride] is 3.7-fold higher in Ki: 0.468 µM for the first, 1.71 µM for the second. The first binds more tightly here.

Compared with `COCCN1CCC(C(=O)NO)(S(=O)(=O)N2CCN(c3ccc(OCCCC(F)(F)F)cc3)CC2)CC1` [Example 9, N-hydroxy-1-(2-methoxyethyl)-4-({4-[4-(4,4,4-trifluorobutoxy)phenyl]piperazin-1-yl}sulfonyl)piperidine-4-carboxamide Dihydrochloride], `COCCN1CCC(C(=O)NO)(S(=O)(=O)N2CCC(c3ccc(OCCCC(F)(F)F)cc3)CC2)CC1` [Example 20, N-hydroxy-1-(2-methoxyethyl)-4-({4-[4-(4,4,4-trifluorobutoxy)phenyl]piperidin-1-yl}sulfonyl)piperidine-4-carboxamide Hydrochloride] is 2.2-fold lower in Ki: 5.91 µM for the first, 2.67 µM for the second.

`O=C(NO)C1(S(=O)(=O)N2CCN(c3ccc(OCC4CC4)c(F)c3)CC2)CCN(C2CC2)CC1` [Example 10, 1-cyclopropyl-4-[[4-[4-(cyclopropylmethoxy)-3-fluorophenyl]-1-piperazinyl]sulfonyl]-N-hydroxy-4-piperidinecarboxamide, dihydrochloride] and `CCCCOc1ccc(N2CCN(S(=O)(=O)C3(C(=O)NO)CCN(CCOC)CC3)CC2)cc1F` [Example 11, 4-[[4-(4-butoxy-3-fluorophenyl)-1-piperazinyl]sulfonyl]-N-hydroxy-1-(2-methoxyethyl)-4-piperidinecarboxamide, Dihydrochloride] are within 1.5-fold of each other in Ki: 4.34 µM for the first, 3.6 µM for the second.

Going from `CCCCCc1ccc(N2CCN(S(=O)(=O)C3(C(=O)NO)CCN(CCOC)CC3)CC2)cc1F` [Example 13, 4-{[4-(3-fluoro-4-pentylphenyl)piperazin-1-yl]sulfonyl}-N-hydroxy-1-(2-methoxyethyl)piperidine-4-carboxamide Dihydrochloride] to `CCCCCc1ccc(N2CCN(S(=O)(=O)C3(C(=O)NO)CCN(CC)CC3)CC2)cc1F` [Example 22, 1-ethyl-4-{[4-(3-fluoro-4-pentylphenyl)piperazin-1-yl]sulfonyl}-N-hydroxypiperidine-4-carboxamine Hydrochloride], the Ki rises from 3.52 µM to 9.32 µM (2.6-fold).

`CCCCCc1ccc(C2CCN(S(=O)(=O)C3(C(=O)NO)CCN(CCOC)CC3)CC2)cc1` [Example 15, N-hydroxy-1-(2-methoxyethyl)-4-{[4-(4-pentylpheyl)piperidin-1-yl]sulfonyl}piperidine-4-carboxamide Hydrochloride] and `CCCCOc1ccc(C2CCN(S(=O)(=O)C3(C(=O)NO)CCN(CCOC)CC3)CC2)cc1` [Example 16, 4-{[4-(4-butoxyphenyl)piperidin-1-yl]sulfonyl}-N-hydroxy-1-(2-methoxyethyl)piperidine-4-carboxamide Hydrochloride] are within 1.5-fold of each other in Ki: 2.96 µM for the first, 2.93 µM for the second.

`O=C(NO)C1(S(=O)(=O)N2CCC(c3ccc(CCC(F)(F)C(F)(F)F)cc3)CC2)CCOCC1` [Example 18, N-hydroxy-4-({4-[4-(3,3,4,4,4-pentafluorobutyl)phenyl]piperidin-1-yl}sulfonyl)tetrahydro-2H-pyran-4-carboxamide] and `CCCCc1ccc(C2CCN(S(=O)(=O)C3(C(=O)NO)CCOCC3)CC2)s1` [Example 19, 4-{[4-(5-butylthien-2-yl)piperidin-1-yl]sulfonyl}-N-hydroxytetrahydro-2H-pyran-4-carboxamide] are within 1.5-fold of each other in Ki: 1.77 µM for the first, 2.19 µM for the second.

Going from `CCCCCc1ccc(N2CCN(S(=O)(=O)C3(C(=O)NO)CCN(C(=O)C(F)(F)F)CC3)CC2)cc1` [Example 21, N-hydroxy-4-{[4-(4-pentylphenyl)piperazin-1-yl]sulfonyl}-1-(trifluoroacetyl)piperidine-4-carboxamide Hydrochloride] to `CCCCc1ccc(C2CCN(S(=O)(=O)C3(C(=O)NO)CCN(C4CC4)CC3)CC2)nc1` [Example 24, 4-{[4-(5-butylpyridin-2-yl)piperidin-1-yl]sulfonyl}-1-cyclopropyl-N-hydroxypiperidine-4-carboxamide Hydrochloride], the Ki falls from 6.91 µM to 2.9 µM (2.4-fold).
